IC50, Kd and Activity data for 11 compounds are collected here from ChEMBL document CHEMBL5096235, “In Silico Exploration and Biological Evaluation of Bispecific Peptides Derived from Anti-HER2 Antibodies and Peptide-Camptothecin Conjugates for HER2-Positive Breast Cancer” (J Med Chem, 2022).

Broadly, the IC50 is the concentration that inhibits the measured activity by half. The Kd is the concentration at which binding is half-saturated.

Calls of active or inactive are those of the source. The rule behind the calls is not given here. Residues, ends and D or L forms follow the SMILES beside them. *: point of attachment. X1 = CC[C@@]1(OC(=O)CCCCCN2CC(=O)C(*)C2=O)C(=O)OCc2c1cc1n(c2=O)Cc2cc3ccccc3nc2-1; X2 = CC[C@@]1(OC(=O)CCS*)C(=O)OCc2c1cc1n(c2=O)Cc2cc3ccccc3nc2-1

One series deals with SK-BR-3. Briefly: Cytotoxicity against HER-positive human SK-BR-3 cells assessed as inhibition of cell growth incubated for 48 hrs by MTT assay. The series is classed as functional, cell-based. The note with it: SK-BR-3, 48 h. (In general: Tetrazolium dyes change colour on reduction, which living cells bring about.)
The next series relates to NCI-N87. Briefly: Cytotoxicity against HER-positive human NCI-N87 cells assessed as inhibition of cell growth incubated for 48 hrs by MTT assay. The note with it: NCI-N87, 48 h. The series is classed as functional, cell-based.
For the next series, the system named is SK-OV-3. Briefly: Cytotoxicity against HER-positive human SK-OV-3 cells assessed as inhibition of cell growth incubated for 48 hrs by MTT assay. The note with it: SK-OV-3, 48 h. The series is classed as functional, cell-based.
Another series relates to MDA-MB-231. Briefly: Cytotoxicity against HER-negative human MDA-MB-231 cells assessed as inhibition of cell growth incubated for 48 hrs by MTT assay. It counts as functional, cell-based. To be noted: MDA-MB-231, 48 h.
The nature of series [1]: Cytotoxicity against human MCF-10A cells assessed as inhibition of cell growth incubated for 48 hrs by MTT assay. The series is classed as toxicity, cell-based.
The target in series [2] is T1, Receptor tyrosine-protein kinase erbB-2 (Homo sapiens, UniProt P04626). Briefly: Binding affinity to recombinant HER2 (unknown origin) assessed as dissociation constant by SPR analysis.
The target in series [3] is T1, Receptor tyrosine-protein kinase erbB-2. Briefly: Binding affinity to HER2 in HER-positive human SK-BR-3 cells assessed as increase in fluorescence intensity at 25 uM by Hoechst 33342 staining based confocal microscopic analysis. It counts as cell-based.

T1 sequence (P04626 whole entry): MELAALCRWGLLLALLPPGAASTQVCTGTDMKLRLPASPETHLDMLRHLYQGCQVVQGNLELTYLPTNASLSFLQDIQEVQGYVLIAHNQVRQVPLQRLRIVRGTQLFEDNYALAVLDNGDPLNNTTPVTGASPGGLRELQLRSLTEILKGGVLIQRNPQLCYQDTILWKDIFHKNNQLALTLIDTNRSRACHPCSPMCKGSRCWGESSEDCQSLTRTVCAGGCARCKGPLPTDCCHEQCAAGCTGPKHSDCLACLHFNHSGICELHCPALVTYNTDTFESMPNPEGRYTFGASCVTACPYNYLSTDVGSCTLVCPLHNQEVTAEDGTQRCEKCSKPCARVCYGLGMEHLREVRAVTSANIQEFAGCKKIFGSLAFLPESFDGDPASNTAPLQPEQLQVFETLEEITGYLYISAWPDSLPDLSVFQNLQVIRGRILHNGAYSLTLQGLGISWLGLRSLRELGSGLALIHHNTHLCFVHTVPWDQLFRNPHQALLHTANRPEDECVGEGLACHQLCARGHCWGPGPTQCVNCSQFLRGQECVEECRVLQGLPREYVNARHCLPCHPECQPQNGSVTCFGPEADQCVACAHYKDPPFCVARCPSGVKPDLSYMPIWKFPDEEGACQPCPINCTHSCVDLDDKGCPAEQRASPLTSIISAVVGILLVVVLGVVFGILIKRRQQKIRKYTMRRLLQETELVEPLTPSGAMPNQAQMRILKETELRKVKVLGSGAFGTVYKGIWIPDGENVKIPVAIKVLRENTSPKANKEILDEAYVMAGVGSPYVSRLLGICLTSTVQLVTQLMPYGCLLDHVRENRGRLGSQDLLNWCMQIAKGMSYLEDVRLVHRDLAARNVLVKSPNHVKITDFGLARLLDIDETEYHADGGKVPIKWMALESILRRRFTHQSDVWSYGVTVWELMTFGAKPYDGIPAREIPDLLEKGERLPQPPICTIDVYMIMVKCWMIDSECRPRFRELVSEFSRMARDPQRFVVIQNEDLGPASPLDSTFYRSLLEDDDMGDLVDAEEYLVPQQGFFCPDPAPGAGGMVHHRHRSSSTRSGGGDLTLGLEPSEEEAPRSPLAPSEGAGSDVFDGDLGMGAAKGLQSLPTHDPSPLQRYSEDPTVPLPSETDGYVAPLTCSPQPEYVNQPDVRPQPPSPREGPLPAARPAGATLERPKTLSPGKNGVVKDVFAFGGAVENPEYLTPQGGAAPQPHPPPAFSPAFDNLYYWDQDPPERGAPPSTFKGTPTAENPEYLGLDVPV

For the compound `CC[C@H](C)[C@H](NC(=O)[C@@H](N)CCCNC(=N)N)C(=O)N[C@@H](CCCCN)C(=O)N1CCC[C@H]1C(=O)N[C@@H](CCCNC(=N)N)C(=O)N[C@@H](CCCCN)C(=O)NCC(=O)N[C@@H](Cc1ccc(O)cc1)C(=O)N[C@H](C(=O)N[C@@H](CCCNC(=N)N)C(=O)NCC(=O)N[C@@H](CSSCCC(=O)O[C@]1(CC)C(=O)OCc2c1cc1n(c2=O)Cc2cc3ccccc3nc2-1)C(=O)NCC(=O)N[C@@H](CC(N)=O)C(=O)N1CCC[C@H]1C(=O)N[C@@H](CC(N)=O)C(=O)N[C@@H](Cc1c[nH]c2ccccc12)C(=O)NCC(=O)N[C@@H](CCCNC(=N)N)C(=O)N[C@@H](CO)C(=O)N[C@@H](Cc1c[nH]c2ccccc12)C(=O)N[C@@H](Cc1ccc(O)cc1)C(=O)N[C@@H](CC(N)=O)C(=O)N[C@@H](CCC(N)=O)C(=O)N[C@@H](CCCNC(=N)N)C(=O)N[C@@H](Cc1ccccc1)C(=O)N[C@@H](CCCCN)C(N)=O)[C@@H](C)O` (H-RIKPRKGYTRGC(X2)GNPNWGRSWYNQRFK-NH2), the IC50 amounted to 6.42 µM in the series on SK-BR-3, 5.76 µM with NCI-N87, 6.25 µM with SK-OV-3 and 10.9 µM in the series with MDA-MB-231. Besides, in series [1], the IC50 at 48 h is 20.4 µM.

Consider `CC[C@H](C)[C@H](NC(=O)[C@@H](N)CCCNC(=N)N)C(=O)N[C@@H](CCCCN)C(=O)N1CCC[C@H]1C(=O)N[C@@H](CCCNC(=N)N)C(=O)N[C@@H](CCCCN)C(=O)NCC(=O)N[C@@H](Cc1ccc(O)cc1)C(=O)N[C@H](C(=O)N[C@@H](CCCNC(=N)N)C(=O)NCC(=O)N[C@@H](CSC1C(=O)CN(CCCCCC(=O)O[C@]2(CC)C(=O)OCc3c2cc2n(c3=O)Cc3cc4ccccc4nc3-2)C1=O)C(=O)NCC(=O)N[C@@H](CC(N)=O)C(=O)N1CCC[C@H]1C(=O)N[C@@H](CC(N)=O)C(=O)N[C@@H](Cc1c[nH]c2ccccc12)C(=O)NCC(=O)N[C@@H](CCCNC(=N)N)C(=O)N[C@@H](CO)C(=O)N[C@@H](Cc1c[nH]c2ccccc12)C(=O)N[C@@H](Cc1ccc(O)cc1)C(=O)N[C@@H](CC(N)=O)C(=O)N[C@@H](CCC(N)=O)C(=O)N[C@@H](CCCNC(=N)N)C(=O)N[C@@H](Cc1ccccc1)C(=O)N[C@@H](CCCCN)C(N)=O)[C@@H](C)O` (some centres not stated) (H-RIKPRKGYTRGC(X1)GNPNWGRSWYNQRFK-NH2), for which the IC50 in the series with SK-BR-3 came to 25.4 µM; in the series on NCI-N87, 15.3 µM; in the series with SK-OV-3 it was 24.4 µM; in the series with MDA-MB-231, 23.1 µM. Further, in series [1], the IC50 at 48 h stood at 35.2 µM.

Turning to `N=C(N)NCCC[C@H](NC(=O)[C@H](CCC(N)=O)NC(=O)[C@H](CC(N)=O)NC(=O)[C@H](Cc1ccc(O)cc1)NC(=O)[C@H](CCCNC(=N)N)NC(=O)[C@H](CO)NC(=O)[C@H](Cc1c[nH]c2ccccc12)NC(=O)CNC(=O)[C@H](Cc1c[nH]c2ccccc12)NC(=O)[C@H](CC(N)=O)NC(=O)[C@@H]1CCCN1C(=O)[C@@H](N)CC(N)=O)C(=O)N[C@@H](Cc1ccccc1)C(=O)N[C@@H](CCCCN)C(=O)O` (H-NPNWGWSRYNQRFK-OH), the Kd in series [2] amounted to 9.89 µM.

As to `N=C(N)NCCC[C@H](NC(=O)CNC(=O)[C@H](Cc1c[nH]c2ccccc12)NC(=O)[C@H](CC(N)=O)NC(=O)[C@@H]1CCCN1C(=O)[C@@H](N)CC(N)=O)C(=O)N[C@@H](CO)C(=O)N[C@@H](Cc1c[nH]c2ccccc12)C(=O)N[C@@H](Cc1ccc(O)cc1)C(=O)N[C@@H](CC(N)=O)C(=O)N[C@@H](CCC(N)=O)C(=O)N[C@@H](CCCNC(=N)N)C(=O)N[C@@H](Cc1ccccc1)C(=O)N[C@@H](CCCCN)C(=O)O` (H-NPNWGRSWYNQRFK-OH), the Kd in series [2] was determined as 5.7 µM.

Regarding `N=C(N)NCCC[C@H](NC(=O)CNC(=O)[C@H](Cc1c[nH]c2ccccc12)NC(=O)[C@@H]1CCCN1C(=O)[C@@H]1CCCN1C(=O)[C@@H](N)CC(N)=O)C(=O)N[C@@H](CO)C(=O)N[C@@H](CCCNC(=N)N)C(=O)N[C@@H](Cc1ccc(O)cc1)C(=O)N[C@@H](CC(N)=O)C(=O)N[C@@H](CCC(N)=O)C(=O)N[C@@H](CCCNC(=N)N)C(=O)N[C@@H](Cc1ccccc1)C(=O)N[C@@H](CCCCN)C(=O)O` (H-NPPWGRSRYNQRFK-OH), the Kd in series [2] is 12.3 µM.

Take `CC[C@H](C)[C@H](NC(=O)[C@@H](N)CCCNC(=N)N)C(=O)N[C@@H](CCCCN)C(=O)N1CCC[C@H]1C(=O)N[C@@H](CCCNC(=N)N)C(=O)N[C@@H](CCCCN)C(=O)NCC(=O)N[C@@H](Cc1ccc(O)cc1)C(=O)N[C@H](C(=O)N[C@@H](CCCNC(=N)N)C(=O)NCC(=O)N[C@@H](CSC1C(=O)CN(CCCCCC(=O)O[C@]2(CC)C(=O)OCc3c2cc2n(c3=O)Cc3cc4ccccc4nc3-2)C1=O)C(=O)NCC(=O)N[C@@H](CSC1C(=O)CN(CCCCCC(=O)O[C@]2(CC)C(=O)OCc3c2cc2n(c3=O)Cc3cc4ccccc4nc3-2)C1=O)C(=O)NC(=O)C[C@H](NC(=O)CN)C(=O)N1CCC[C@H]1C(=O)N[C@@H](CC(N)=O)C(=O)N[C@@H](Cc1c[nH]c2ccccc12)C(=O)NCC(=O)N[C@@H](CCCNC(=N)N)C(=O)N[C@@H](CO)C(=O)N[C@@H](Cc1c[nH]c2ccccc12)C(=O)N[C@@H](Cc1ccc(O)cc1)C(=O)N[C@@H](CC(N)=O)C(=O)N[C@@H](CCC(N)=O)C(=O)N[C@@H](CCCNC(=N)N)C(=O)N[C@@H](Cc1ccccc1)C(=O)N[C@@H](CCCCN)C(N)=O)[C@@H](C)O` (some centres not stated): the IC50 with SK-BR-3 came out at 6.72 µM; in the series on NCI-N87, 10.9 µM; with SK-OV-3, 20.4 µM; in the series on MDA-MB-231, 28.2 µM. For the same compound, the IC50 at 48 h in series [1] came out at 25.2 µM.

With `N=C(N)NCCC[C@H](NC(=O)[C@H](CCC(N)=O)NC(=O)[C@H](CC(N)=O)NC(=O)[C@H](Cc1ccc(O)cc1)NC(=O)[C@H](Cc1c[nH]c2ccccc12)NC(=O)[C@H](CO)NC(=O)[C@H](Cc1ccc(O)cc1)NC(=O)CNC(=O)[C@H](Cc1c[nH]c2ccccc12)NC(=O)[C@H](CC(N)=O)NC(=O)[C@@H]1CCCN1C(=O)[C@@H](N)CC(N)=O)C(=O)N[C@@H](Cc1ccccc1)C(=O)N[C@H](C=O)CCCCN` (H-NPNWGYSWYNQRFK-aldehyde), the Kd in series [2] amounted to 14.3 µM.

For the compound `CC[C@H](C)[C@H](NC(=O)[C@@H](N)CCCNC(=N)N)C(=O)N[C@@H](CCCCN)C(=O)N1CCC[C@H]1C(=O)N[C@@H](CCCNC(=N)N)C(=O)N[C@@H](CCCCN)C(=O)NCC(=O)N[C@@H](Cc1ccc(O)cc1)C(=O)N[C@H](C(=O)N[C@@H](CCCNC(=N)N)C(=O)O)[C@@H](C)O` (H-RIKPRKGYTR-OH), the Kd in series [2] was found to be 7.6 µM.

With `CC[C@H](C)[C@H](NC(=O)[C@H](CCCNC(=N)N)NC(=O)CNC(=O)[C@H](CS)NC(=O)CNC(=O)[C@H](CCCCN)NC(=O)[C@H](Cc1ccccc1)NC(=O)[C@H](CCCNC(=N)N)NC(=O)[C@H](CCC(N)=O)NC(=O)[C@H](CC(N)=O)NC(=O)[C@H](Cc1ccc(O)cc1)NC(=O)[C@H](Cc1c[nH]c2ccccc12)NC(=O)[C@H](CO)NC(=O)[C@H](CCCNC(=N)N)NC(=O)CNC(=O)[C@H](Cc1c[nH]c2ccccc12)NC(=O)[C@H](CC(N)=O)NC(=O)[C@@H]1CCCN1C(=O)[C@H](N)CC(=O)NC(=S)Nc1ccc2c(c1)C(=O)OC21c2ccc(O)cc2Oc2cc(O)ccc21)C(=O)N[C@@H](CCCCN)C(=O)N1CCC[C@@H]1C(=O)N[C@H](CCCNC(=N)N)C(=O)N[C@H](CCCCN)C(=O)NCC(=O)N[C@H](Cc1ccc(O)cc1)C(=O)N[C@@H](C(=O)N[C@H](CCCNC(=N)N)C(N)=O)[C@H](C)O`, the outcome in series [3] was Active.

As to `CC[C@H](C)[C@H](NC(=O)[C@@H](N)CCCNC(=N)N)C(=O)N[C@@H](CCCCN)C(=O)N1CCC[C@H]1C(=O)N[C@@H](CCCNC(=N)N)C(=O)N[C@@H](CCCCN)C(=O)NCC(=O)N[C@@H](Cc1ccc(O)cc1)C(=O)N[C@H](C(=O)N[C@@H](CCCNC(=N)N)C(=O)NCC(=O)N[C@@H](CSSCCC(=O)O[C@]1(CC)C(=O)OCc2c1cc1n(c2=O)Cc2cc3ccccc3nc2-1)C(=O)NCC(=O)N[C@@H](CSSCCC(=O)O[C@]1(CC)C(=O)OCc2c1cc1n(c2=O)Cc2cc3ccccc3nc2-1)C(=O)NC(=O)C[C@H](NC(=O)CN)C(=O)N1CCC[C@H]1C(=O)N[C@@H](CC(N)=O)C(=O)N[C@@H](Cc1c[nH]c2ccccc12)C(=O)NCC(=O)N[C@@H](CCCNC(=N)N)C(=O)N[C@@H](CO)C(=O)N[C@@H](Cc1c[nH]c2ccccc12)C(=O)N[C@@H](Cc1ccc(O)cc1)C(=O)N[C@@H](CC(N)=O)C(=O)N[C@@H](CCC(N)=O)C(=O)N[C@@H](CCCNC(=N)N)C(=O)N[C@@H](Cc1ccccc1)C(=O)N[C@@H](CCCCN)C(N)=O)[C@@H](C)O`, the IC50 in the series with SK-BR-3 was 1.49 µM; in the series with NCI-N87, 7.37 µM; in the series with SK-OV-3, 4.12 µM; in the series with MDA-MB-231, 11.5 µM. Also, the IC50 at 48 h in series [1] is 18.2 µM.

As for `N=C(N)NCCC[C@H](NC(=O)[C@H](CCC(N)=O)NC(=O)[C@H](CC(N)=O)NC(=O)[C@H](Cc1ccc(O)cc1)NC(=O)[C@H](Cc1c[nH]c2ccccc12)NC(=O)[C@H](CO)NC(=O)[C@H](Cc1c[nH]c2ccccc12)NC(=O)CNC(=O)[C@H](Cc1c[nH]c2ccccc12)NC(=O)[C@H](CC(N)=O)NC(=O)[C@@H]1CCCN1C(=O)[C@@H](N)CC(N)=O)C(=O)N[C@@H](Cc1ccccc1)C(=O)N[C@@H](CCCCN)C(=O)O` (H-NPNWGWSWYNQRFK-OH), in series [2], the Kd worked out at 8.9 µM.
